Laboratory results taken from patent US9580418B2, “Bicyclic aromatic carboxamide compounds useful as Pim kinase inhibitors” (Incyte Corporation, priority 2014, dated 2017).

Assays:
[1] = molecular target: Pim-3 (Homo sapiens (Human), UniProt Q86V86); assay: Pim-3 kinase assay (Pim enzyme assays, Example A); type: biochemical; conditions: 1 mM ATP, BAD peptide substrate; read-out: PIM3 IC50
Protocol: (§1) Pim-1 and Pim-3 kinase assays-20 μL reactions were run in white 384 well polystyrene plates dotted with 0.8 μL compound/DMSO in the assay buffer (50 mM Tris, pH 7.5, 0.01% Tween-20, 5 mM mgCl2, 0.01% BSA, 5 mM DTT), containing 0.05 μM Biotin-labeled BAD peptide substrate (AnaSpec 62269), 1 mM ATP, and 2.5 pM (Pim-1, Invitrogen PV3503) or 1.25 pM (Pim-3, Millipore 14-738) enzyme for 1 h at 25° C. Reactions were stopped by addition of 10 μL STOP Buffer (150 mM Tris, pH=7.5, 150 mM NaCl, 75 mM EDTA, 0.01% Tween-20, 0.3% BSA,) supplemented with Phospho-Bad (Ser112) Antibody (Cell Signaling 9291) diluted 666-fold, and Streptavidin donor beads (PerkinElmer 6760002) along with Protein-A acceptor beads (PerkinElmer 6760137) at 15 μg/mL each. Supplementation of the STOP buffer with beads and stopping the reactions were done under reduced light. Prior to the stopping reactions STOP buffer with beads was preincubated for 1 h in the dark at room temperature. After stopping the reactions, plates were incubated for 1 h in the dark at room temperature before reading on a PHERAstar FS plate reader (BMG Labtech) under reduced light.

[2] = molecular target: Pim-2 (Homo sapiens (Human), UniProt Q9P1W9); assay: Pim-2 kinase assay (Pim enzyme assays, Example A); type: biochemical; conditions: 1 mM ATP, CREBtide peptide substrate; read-out: PIM2 IC50
Protocol: Pim-2 kinase assay-20 μL reactions were run in white 384 well polystyrene plates dotted with 0.8 μL compound/DMSO in the assay buffer (50 mM Tris, pH 7.5, 0.01% Tween-20, 5 mM mgCl2, 0.01% BSA, 5 mM DTT), containing 0.05 μM Fluorescein-labeled CREBtide peptide substrate (Invitrogen PV3508), 1 mM ATP, and 1 nM enzyme (Invitrogen PV3649) for 2 h at 25° C. Reactions were stopped by addition of 10 μL TR-FRET Dilution Buffer (Invitrogen PV3574) with 30 mM EDTA and 1.5 nM LanthaScreen Tb-CREB pSer133 antibody (Invitrogen PV3566). After 30 min. incubation at room temperature, plates were read on a PHERAstar FS plate reader (BMG Labtech).

[3] = tested on: pBAD in KMS.12.BM cells; assay: Pim pBAD signaling assay in KMS.12.BM cells (Example B); type: cell-based; conditions: Homo sapiens, 2.5 h incubation, pBAD ELISA
Protocol: KG-1A cells are purchased from ATCC (Manassas, Va.) and KMS.12.BM cells are purchased from NIBIO, JCRB cell bank (Tokyo, Japan) and maintained in the culture mediums recommended, RPMI, 10% FBS and IMDM 20% FBS (Mediatech, Manassas, Va.) respectively. To measure the pBAD inhibitory activity of the compounds, both cell lines are plated with the culture medium (1×10^6/well/100 μL for KG1A and 4×10^5 cells/well/in 100 μL for KMS12BM) into 96-well V bottom polypropylene plates (Matrix, Thermo Fisher, USA) and incubated 30 min. at 37° C. to normalize cell signaling from handling. Test compounds are added at an appropriate concentration range and further incubated for 2.5 h for KMS.12.BM cells and 4 h for KG1-A cells. Plates are centrifuged at 2000 RPM for 10 min. and supernatants aspirated. 100 μL lysis buffer with protease inhibitors (Cell Signaling Technologies, Danver, Mass., Sigma, St Louis Mo., EMD, USA) is added to the pellets, mixed well and set on ice for 30 min. Lysates are frozen overnight at −80° C. To measure the pBAD activity, a Cell Signaling ELISA kit (Cell Signaling Path Scan phosphor pBAD ELISA) is utilized. 50 μL of the lysate is tested per the ELISA protocol and the data analysis is performed by software on a SpectrMax5 plate reader (Molecular Devices, Sunnyvale, Calif.). IC50 determination is performed by fitting the curve of percent inhibition versus the log of the inhibitor concentration using the GraphPad Prism 5.0 software.

[4] = molecular target: Pim-1 (Homo sapiens (Human), UniProt P11309); assay: Pim-1 kinase assay (Pim enzyme assays, Example A); type: biochemical; conditions: 1 mM ATP, BAD peptide substrate; read-out: PIM1 IC50
Protocol: as §1

Pim-2, sequence (Q9P1W9 whole entry): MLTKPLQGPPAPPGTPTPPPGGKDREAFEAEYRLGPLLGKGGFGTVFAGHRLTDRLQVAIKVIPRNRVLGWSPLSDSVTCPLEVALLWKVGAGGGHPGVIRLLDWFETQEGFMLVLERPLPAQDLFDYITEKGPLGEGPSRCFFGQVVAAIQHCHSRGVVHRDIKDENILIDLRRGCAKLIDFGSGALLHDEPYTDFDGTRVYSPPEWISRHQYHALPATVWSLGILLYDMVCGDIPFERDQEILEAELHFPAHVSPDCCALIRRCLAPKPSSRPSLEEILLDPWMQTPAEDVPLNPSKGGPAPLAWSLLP
Pim-1, sequence (P11309 whole entry): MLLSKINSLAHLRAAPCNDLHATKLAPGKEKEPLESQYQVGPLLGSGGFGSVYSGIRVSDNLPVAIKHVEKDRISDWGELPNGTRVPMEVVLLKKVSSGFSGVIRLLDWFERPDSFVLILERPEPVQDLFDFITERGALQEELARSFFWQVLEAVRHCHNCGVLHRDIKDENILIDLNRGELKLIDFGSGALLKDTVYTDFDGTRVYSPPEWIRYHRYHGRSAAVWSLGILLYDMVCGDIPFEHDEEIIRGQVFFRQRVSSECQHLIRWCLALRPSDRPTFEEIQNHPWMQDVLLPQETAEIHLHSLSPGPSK

Compound | IC50 [1] | IC50 [2] | IC50 [3] | IC50 [4]
C[C@@H]1C[C@H](N)CN(c2ccncc2NC(=O)c2ccc3ccc(N4CCC5(CCOCC5)CC4)cc3n2)C1 [Example 15, N-{4-[(3S,5R)-3-Amino-5-methylpiperidin-1-yl]pyridin-3-yl}-7-(3-oxa-9-azaspiro[5.5]undec-9-yl)quinoline-2-carboxamide] | ≤ 0.01 µM | 0.1 to 1 µM | 0.05 to 0.25 µM | ≤ 0.01 µM
C[C@H]1CN(c2ccncc2NC(=O)c2ccc3ccc(N4CCC(C#N)CC4)cc3n2)C[C@@H](N)[C@@H]1O [Example 16, N-{4-[(3R,4R,5S)-3-Amino-4-hydroxy-5-methylpiperidin-1-yl]pyridin-3-yl}-7-(4-cyanopiperidin-1-yl)quinoline-2-carboxamide] | ≤ 0.01 µM | ≤ 0.1 µM | ≤ 0.05 µM | ≤ 0.01 µM
C[C@@H]1C[C@H](N)CN(c2ccncc2NC(=O)c2ccc3ccc(N4CCC(C#N)CC4)cc3n2)C1 [Example 17, N-{4-[(3S,5R)-3-Amino-5-methylpiperidin-1-yl]pyridin-3-yl}-7-(4-cyanopiperidin-1-yl)quinoline-2-carboxamide] | ≤ 0.01 µM | 0.1 to 1 µM | 0.05 to 0.25 µM | ≤ 0.01 µM
C[C@H]1CN(c2ccncc2NC(=O)c2ccc3ccc(N4CCN(C)CC4)cc3n2)C[C@@H](N)[C@@H]1O [Example 18, N-{4-[(3R,4R,5S)-3-Amino-4-hydroxy-5-methylpiperidin-1-yl]pyridin-3-yl}-7-(4-methylpiperazin-1-yl)quinoline-2-carboxamide] | ≤ 0.01 µM | 0.1 to 1 µM | 0.05 to 0.25 µM | ≤ 0.01 µM
C[C@@H]1C[C@H](N)CN(c2ccncc2NC(=O)c2ccc3ccc(N4CCN(C)CC4)cc3n2)C1 [Example 19, N-{4-[(3S,5R)-3-Amino-5-methylpiperidin-1-yl]pyridin-3-yl}-7-(4-methylpiperazin-1-yl)quinoline-2-carboxamide] | ≤ 0.01 µM | 0.1 to 1 µM | 0.25 to 2 µM | ≤ 0.01 µM
C[C@H]1CN(c2ccncc2NC(=O)c2ccc3ccc(N4CCC(c5ccncc5)CC4)cc3n2)C[C@@H](N)[C@@H]1O [Example 20, N-{4-[(3R,4R,5S)-3-Amino-4-hydroxy-5-methylpiperidin-1-yl]pyridin-3-yl}-7-(4-pyridin-4-ylpiperidin-1-yl)quinoline-2-carboxamide] | ≤ 0.01 µM | ≤ 0.1 µM | 0.05 to 0.25 µM | ≤ 0.01 µM
C[C@@H]1C[C@H](N)CN(c2ccncc2NC(=O)c2ccc3ccc(N4CCC(c5ccncc5)CC4)cc3n2)C1 [Example 21, N-{4-[(3S,5R)-3-Amino-5-methylpiperidin-1-yl]pyridin-3-yl}-7-(4-pyridin-4-ylpiperidin-1-yl)quinoline-2-carboxamide] | ≤ 0.01 µM | 0.1 to 1 µM | 0.05 to 0.25 µM | ≤ 0.01 µM
CCN1CCN(c2ccc3ccc(C(=O)Nc4cnccc4N4C[C@@H](N)[C@H](O)[C@@H](C)C4)nc3c2)CC1=O [Example 22, N-{4-[(3R,4R,5S)-3-Amino-4-hydroxy-5-methylpiperidin-1-yl]pyridin-3-yl}-7-(4-ethyl-3-oxopiperazin-1-yl)quinoline-2-carboxamide] | ≤ 0.01 µM | ≤ 0.1 µM | ≤ 0.05 µM | ≤ 0.01 µM
CCN1CCN(c2ccc3ccc(C(=O)Nc4cnccc4N4C[C@H](C)C[C@H](N)C4)nc3c2)CC1=O [Example 23, N-{4-[(3S,5R)-3-Amino-5-methylpiperidin-1-yl]pyridin-3-yl}-7-(4-ethyl-3-oxopiperazin-1-yl)quinoline-2-carboxamide] | ≤ 0.01 µM | ≤ 0.1 µM | ≤ 0.05 µM | ≤ 0.01 µM
COC1CCN(c2ccc3ccc(C(=O)Nc4cnccc4N4C[C@@H](N)[C@H](O)[C@@H](C)C4)nc3c2)CC1 [Example 24, N-{4-[(3R,4R,5S)-3-Amino-4-hydroxy-5-methylpiperidin-1-yl]pyridin-3-yl}-7-(4-methoxypiperidin-1-yl)quinoline-2-carboxamide] | ≤ 0.01 µM | ≤ 0.1 µM | ≤ 0.05 µM | ≤ 0.01 µM
COC1CCN(c2ccc3ccc(C(=O)Nc4cnccc4N4C[C@H](C)C[C@H](N)C4)nc3c2)CC1 [Example 25, N-{4-[(3S,5R)-3-Amino-5-methylpiperidin-1-yl]pyridin-3-yl}-7-(4-methoxypiperidin-1-yl)quinoline-2-carboxamide] | ≤ 0.01 µM | ≤ 0.1 µM | ≤ 0.05 µM | ≤ 0.01 µM
C[C@H]1CN(c2ccncc2NC(=O)c2ccc3ccc(N4CCC(N5CCOCC5)CC4)cc3n2)C[C@@H](N)[C@@H]1O [Example 26, N-{4-[(3R,4R,5S)-3-Amino-4-hydroxy-5-methylpiperidin-1-yl]pyridin-3-yl}-7-(4-morpholin-4-ylpiperidin-1-yl)quinoline-2-carboxamide] | ≤ 0.01 µM | ≤ 0.1 µM | 0.05 to 0.25 µM | ≤ 0.01 µM
C[C@@H]1C[C@H](N)CN(c2ccncc2NC(=O)c2ccc3ccc(N4CCC(N5CCOCC5)CC4)cc3n2)C1 [Example 27, N-{4-[(3S,5R)-3-Amino-5-methylpiperidin-1-yl]pyridin-3-yl}-7-(4-morpholin-4-ylpiperidin-1-yl)quinoline-2-carboxamide] | ≤ 0.01 µM | 0.1 to 1 µM | 0.05 to 0.25 µM | ≤ 0.01 µM
C[C@H]1CN(c2ccncc2NC(=O)c2ccc3ccc(N4CCCC4)cc3n2)C[C@@H](N)[C@@H]1O [Example 30, N-{4-[(3R,4R,5S)-3-Amino-4-hydroxy-5-methylpiperidin-1-yl]pyridin-3-yl}-7-pyrrolidin-1-ylquinoline-2-carboxamide] | ≤ 0.01 µM | ≤ 0.1 µM | 0.05 to 0.25 µM | ≤ 0.01 µM
C[C@@H]1C[C@H](N)CN(c2ccncc2NC(=O)c2ccc3ccc(N4CCCC4)cc3n2)C1 [Example 31, N-{4-[(3S,5R)-3-Amino-5-methylpiperidin-1-yl]pyridin-3-yl}-7-pyrrolidin-1-ylquinoline-2-carboxamide] | ≤ 0.01 µM | 0.1 to 1 µM | 0.05 to 0.25 µM | ≤ 0.01 µM
C[C@@H]1C[C@H](N)CN(c2ccncc2NC(=O)c2ccc3ccc(N4CCC4)cc3n2)C1 [Example 34, N-{4-[(3S,5R)-3-Amino-5-methylpiperidin-1-yl]pyridin-3-yl}-7-azetidin-1-ylquinoline-2-carboxamide] | ≤ 0.01 µM | ≤ 0.1 µM | 0.05 to 0.25 µM | ≤ 0.01 µM
COc1cc(F)c(-c2cnc3ccc(C(=O)Nc4cnccc4N4C[C@@H](N)[C@H](O)[C@@H](C5CC5)C4)nc3c2)c(F)c1 [Example 35, N-{4-[(3R,4R,5S)-3-Amino-5-cyclopropyl-4-hydroxypiperidin-1-yl]pyridin-3-yl}-7-(2,6-difluoro-4-methoxyphenyl)-1,5-naphthyridine-2-carboxamide] | ≤ 0.01 µM | ≤ 0.1 µM | ≤ 0.05 µM | ≤ 0.01 µM
COc1ccc(-c2cnc3ccc(C(=O)Nc4cnccc4N4C[C@@H](N)[C@H](O)[C@@H](C5CC5)C4)nc3c2)cn1 [Example 36, N-{4-[(3R,4R,5S)-3-Amino-5-cyclopropyl-4-hydroxypiperidin-1-yl]pyridin-3-yl}-7-(6-methoxypyridin-3-yl)-1,5-naphthyridine-2-carboxamide] | ≤ 0.01 µM | ≤ 0.1 µM | ≤ 0.05 µM | ≤ 0.01 µM
